Data taken from patent US20130216666A1, “CASHEW NUT SHELL LIQUID WITH IMPROVED STABILITY” (IDEMITSU KOSAN CO., LTD., priority 2010, published 2013).

Columns and labels:
[1] = Inhibition of decarboxylation reaction when organic acid chelating agent was added (HPLC); format: physicochemical; conditions: 80° C.
[2] = Inhibition of decarboxylation reaction in feed; conditions: 10% by weight in unheated CNSL, 80° C.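 Further: ethyl acetate extract of test feed analysed by reversed-phase C18 HPLC with absorbance detection at 280 nm, giving component composition.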
Experimental: The analysis was carried out under the conditions of a solvent composition of acetonitrile: water: acetic acid =80:20:1 (based on volume), a flow rate of 2 ml/min, a temperature of 25° C., and an absorbance of 280 nm.
Samples were taken from the beakers after 3 days and analyzed for composition by HPLC.
For HPLC analysis, soluble fractions of the test feed was extracted with ethyl acetate and then filtered and dried to concentrate it to 5 mg/ml.

[3] = Inhibition of decarboxylation reaction in unheated cashew nut shell liquid formulation (silica), citric acid; format: physicochemical; conditions: 80° C.; for Anacardic Acid 15:1 Composition (%) / Anacardic Acid 15:1 concentration / Anacardic Acid 15:2 Composition (%) / Anacardic Acid 15:2 concentration / Anacardic Acid 15:3 Composition (%) / Anacardic Acid 15:3 concentration / Cardanol 15:1 concentration / Cardanol 15:2 Composition (%) / Cardanol 15:2 concentration / Cardanol 15:3 Composition (%) / Cardanol 15:3 concentration / Cardanol 15:1 Composition (%): mixed with silica; for inhibition of the decarboxylation: formulation with silica, 6 days
Source text: 10 g of silica (Sipernat 22) was placed into each of beakers.

[4] = 2% by weight in unheated CNSL, Day 0
[5] = 2% by weight in unheated CNSL, Day 6
[6] = 10% by weight in unheated CNSL, Day 0
[7] = 10% by weight in unheated CNSL, Day 6
[8] = silica composition 1% by weight in feed, Day 0
[9] = silica composition 1% by weight in feed, Day 3

O=C(O)CC(O)(CC(=O)O)C(=O)O [Citric Acid, citric acid]
Anacardic Acid 15:1 Composition (%) [1, 4]: 39.78%
Anacardic Acid 15:1 concentration [1, 4]: 332.79 ppm
Anacardic Acid 15:2 Composition (%) [1, 4]: 14.23%
Anacardic Acid 15:2 concentration [1, 4]: 119.04 ppm
Anacardic Acid 15:3 Composition (%) [1, 4]: 33.01%
Anacardic Acid 15:3 concentration [1, 4]: 276.11 ppm
Cardanol 15:1 concentration [1, 4]: 45.23 ppm
Cardanol 15:2 Composition (%) [1, 4]: 2.32%
Cardanol 15:2 concentration [1, 4]: 19.40 ppm
Cardanol 15:3 Composition (%) [1, 4]: 5.25%
Cardanol 15:3 concentration [1, 4]: 43.93 ppm
Anacardic Acid 15:1 Composition (%) [1, 5]: 32.78%
Anacardic Acid 15:1 concentration [1, 5]: 281.46 ppm
Anacardic Acid 15:2 Composition (%) [1, 5]: 11.39%
Anacardic Acid 15:2 concentration [1, 5]: 97.81 ppm
Anacardic Acid 15:3 Composition (%) [1, 5]: 26.31%
Anacardic Acid 15:3 concentration [1, 5]: 225.94 ppm
Cardanol 15:1 concentration [1, 5]: 111.23 ppm
Cardanol 15:2 Composition (%) [1, 5]: 4.84%
Cardanol 15:2 concentration [1, 5]: 41.54 ppm
Cardanol 15:3 Composition (%) [1, 5]: 11.72%
Cardanol 15:3 concentration [1, 5]: 100.64 ppm
Anacardic Acid 15:1 Composition (%) [1, 6]: 39.28%
Anacardic Acid 15:1 concentration [1, 6]: 248.49 ppm
Anacardic Acid 15:2 Composition (%) [1, 6]: 14.38%
Anacardic Acid 15:2 concentration [1, 6]: 90.98 ppm
Anacardic Acid 15:3 Composition (%) [1, 6]: 33.19%
Anacardic Acid 15:3 concentration [1, 6]: 209.99 ppm
Cardanol 15:1 concentration [1, 6]: 34.38 ppm
Cardanol 15:2 Composition (%) [1, 6]: 2.45%
Cardanol 15:2 concentration [1, 6]: 15.47 ppm
Cardanol 15:3 Composition (%) [1, 6]: 5.27%
Cardanol 15:3 concentration [1, 6]: 33.37 ppm
Anacardic Acid 15:1 Composition (%) [1, 7]: 38.07%
Anacardic Acid 15:1 concentration [1, 7]: 273.99 ppm
Anacardic Acid 15:2 Composition (%) [1, 7]: 13.78%
Anacardic Acid 15:2 concentration [1, 7]: 99.14 ppm
Anacardic Acid 15:3 Composition (%) [1, 7]: 31.48%
Anacardic Acid 15:3 concentration [1, 7]: 226.51 ppm
Cardanol 15:1 concentration [1, 7]: 49.53 ppm
Cardanol 15:2 Composition (%) [1, 7]: 3.30%
Cardanol 15:2 concentration [1, 7]: 23.72 ppm
Cardanol 15:3 Composition (%) [1, 7]: 6.49%
Cardanol 15:3 concentration [1, 7]: 46.72 ppm
stability of the shell liquid in the feed (progress of the decarboxylation) ([2]; in feed, 3 days): stable in the feed without progress of the decarboxylation
Anacardic Acid 15:1 Composition (%) [2, 8]: 40.28%
Anacardic Acid 15:1 concentration [2, 8]: 363.92 ppm
Anacardic Acid 15:2 Composition (%) [2, 8]: 13.76%
Anacardic Acid 15:2 concentration [2, 8]: 124.28 ppm
Anacardic Acid 15:3 Composition (%) [2, 8]: 33.11%
Anacardic Acid 15:3 concentration [2, 8]: 299.13 ppm
Cardanol 15:1 concentration [2, 8]: 48.69 ppm
Cardanol 15:2 Composition (%) [2, 8]: 2.31%
Cardanol 15:2 concentration [2, 8]: 20.83 ppm
Cardanol 15:3 Composition (%) [2, 8]: 5.15%
Cardanol 15:3 concentration [2, 8]: 46.52 ppm
Anacardic Acid 15:1 Composition (%) [2, 9]: 38.54%
Anacardic Acid 15:1 concentration [2, 9]: 309.33 ppm
Anacardic Acid 15:2 Composition (%) [2, 9]: 13.16%
Anacardic Acid 15:2 concentration [2, 9]: 105.64 ppm
Anacardic Acid 15:3 Composition (%) [2, 9]: 31.68%
Anacardic Acid 15:3 concentration [2, 9]: 254.26 ppm
Cardanol 15:1 Composition (%) [2, 9]: 6.98%
Cardanol 15:1 concentration [2, 9]: 56.00 ppm
Cardanol 15:2 Composition (%) [2, 9]: 2.98%
Cardanol 15:2 concentration [2, 9]: 23.95 ppm
Cardanol 15:3 Composition (%) [2, 9]: 6.67%
Cardanol 15:3 concentration [2, 9]: 53.50 ppm
Anacardic Acid 15:1 Composition (%) [3, 4]: 39.36%
Anacardic Acid 15:1 concentration [3, 4]: 161.67 ppm
Anacardic Acid 15:2 Composition (%) [3, 4]: 14.07%
Anacardic Acid 15:2 concentration [3, 4]: 57.80 ppm
Anacardic Acid 15:3 Composition (%) [3, 4]: 32.64%
Anacardic Acid 15:3 concentration [3, 4]: 134.06 ppm
Cardanol 15:1 concentration [3, 4]: 23.41 ppm
Cardanol 15:2 Composition (%) [3, 4]: 2.78%
Cardanol 15:2 concentration [3, 4]: 11.43 ppm
Cardanol 15:3 Composition (%) [3, 4]: 5.44%
Cardanol 15:3 concentration [3, 4]: 22.36 ppm
Anacardic Acid 15:1 Composition (%) [3, 5]: 32.92%
Anacardic Acid 15:1 concentration [3, 5]: 121.26 ppm
Anacardic Acid 15:2 Composition (%) [3, 5]: 11.63%
Anacardic Acid 15:2 concentration [3, 5]: 42.84 ppm
Anacardic Acid 15:3 Composition (%) [3, 5]: 26.37%
Anacardic Acid 15:3 concentration [3, 5]: 97.14 ppm
Cardanol 15:1 Composition (%) [3, 5]: 12.91%
Cardanol 15:1 concentration [3, 5]: 47.56 ppm
Cardanol 15:2 Composition (%) [3, 5]: 4.67%
Cardanol 15:2 concentration [3, 5]: 17.19 ppm
Cardanol 15:3 Composition (%) [3, 5]: 11.49%
Cardanol 15:3 concentration [3, 5]: 42.34 ppm
Anacardic Acid 15:1 Composition (%) [3, 6]: 39.73%
Anacardic Acid 15:1 concentration [3, 6]: 151.81 ppm
Anacardic Acid 15:2 Composition (%) [3, 6]: 14.05%
Anacardic Acid 15:2 concentration [3, 6]: 53.68 ppm
Anacardic Acid 15:3 Composition (%) [3, 6]: 32.47%
Anacardic Acid 15:3 concentration [3, 6]: 124.09 ppm
Cardanol 15:1 concentration [3, 6]: 21.54 ppm
Cardanol 15:2 Composition (%) [3, 6]: 2.79%
Cardanol 15:2 concentration [3, 6]: 10.67 ppm
Cardanol 15:3 Composition (%) [3, 6]: 5.32%
Cardanol 15:3 concentration [3, 6]: 20.34 ppm
Anacardic Acid 15:1 Composition (%) [3, 7]: 38.12%
Anacardic Acid 15:1 concentration [3, 7]: 136.67 ppm
Anacardic Acid 15:2 Composition (%) [3, 7]: 14.58%
Anacardic Acid 15:2 concentration [3, 7]: 52.15 ppm
Anacardic Acid 15:3 Composition (%) [3, 7]: 30.40%
Anacardic Acid 15:3 concentration [3, 7]: 108.99 ppm
Cardanol 15:1 Composition (%) [3, 7]: 7.19%
Cardanol 15:1 concentration [3, 7]: 25.79 ppm
Cardanol 15:2 Composition (%) [3, 7]: 3.19%
Cardanol 15:2 concentration [3, 7]: 11.43 ppm
Cardanol 15:3 Composition (%) [3, 7]: 6.55%
Cardanol 15:3 concentration [3, 7]: 23.49 ppm
inhibition of the decarboxylation ([3]; 2% by weight): moderate inhibition
inhibition of the decarboxylation ([3]; 10% by weight): significant inhibition
